The record followed here is ChEMBL document CHEMBL4043090 (Bioorg Med Chem, 2017).

The IC50 is the midpoint of a concentration-inhibition curve. As a reminder, the IC90 is the concentration needed for an effect of 90%.

Data set [1] relates to Human immunodeficiency virus 1. Format: functional, cell-based. The settings on record: Human immunodeficiency virus 1, A17, MAGI-CCR5, 48 h.
Data set [2] has as its system Human immunodeficiency virus 1. Description: Antiviral activity against HIV-1 Bal infected in human MAGI-CCR5 cells assessed as reduction in viral infection after 48 hrs by fluorescence based beta-galactosidase reporter gene assay. Format: functional, cell-based. Conditions: for IC50 / IC90: Human immunodeficiency virus 1, Bal, MAGI-CCR5, 48 h. In general terms: Reporter assays use an easily measured gene product as a stand-in for the process of interest.

In another data set the test system is PBMC. Nature of the data set: Antiviral activity against HIV-1 Bal infected in human PBMC by MTS assay. It is filed as functional, cell-based. On the technique in general: Tetrazolium dyes change colour on reduction, which living cells bring about.
Data set [3] is described as follows: Therapeutic index, ratio of TC50 for human MAGI-CCR5 cells to IC50 for HIV-1 NL4-3 infected in MAGI-CCR5 cells.
Data set [4] is described as follows: Cytotoxicity against human MAGI-CCR5 cells assessed as reduction in cell viability after 48 hrs by MTS assay. Format: cell-based. Conditions: read-out: TC50.
Data set [5] in a line: Cytotoxicity against human PBMC assessed as reduction in cell viability by MTS assay. It is filed as cell-based. The settings on record: read-out: TC50 (the source's name).
Data set [6] is described as follows: Therapeutic index, ratio of TC50 for human MAGI-CCR5 cells to IC50 for HIV-1 Bal infected in MAGI-CCR5 cells.
Data set [7] is described as follows: Therapeutic index, ratio of TC50 for human PBMC to IC50 for HIV-1 Bal infected in human PBMC.
A short description of data set [8]: Metabolic stability in rat plasma assessed as compound remaining at 100 uM after 1 hr by LC/MS analysis. Format: ADME, cell-free. Conditions: read-out: Stability.
Data set [9] in a line: Metabolic stability in rat liver microsomes assessed as compound remaining at 4 uM preincubated for 5 mins followed by NADPH addition measured after 60 mins by LC/MS analysis. Format: ADME, microsome. Conditions: read-out: Stability.
For data set [10], the system named is Human immunodeficiency virus 1. Description: microbe, parasite or virus in culture. The settings on record: Human immunodeficiency virus 1, NL4-3, MAGI-CCR5, 48 h.
Description: Antiviral activity against wild type HIV-1 NL4-3 infected in human MAGI-CCR5 cells assessed as reduction in viral infection after 48 hrs by fluorescence based beta-galactosidase reporter gene assay

Consider `CC1=C(c2nc(-c3ccc(C#N)cc3)cs2)C(c2ccc(Br)nc2)NC(=O)N1` (configuration not stated), for which the IC50 was greater than 100 µM in [1], 0.35 µM in [2], 0.21 µM in the data set on PBMC and 0.5 µM in data set [10]. The IC90 in data set [1] is greater than 100 µM; in data set [2] it was 1.4 µM; in the data set on PBMC, 0.57 µM; in data set [10], 3.2 µM. Moreover, the Activity entry in data set [2] was “Dose-dependent effect”. The TI is greater than 200 in [3], 286 in data set [6] and 476 in data set [7]. For the same molecule, in data set [4], the CC50 at 48 h is greater than 100 µM. Besides, the CC50 in data set [5] was greater than 100 µM. The remaining at 1 h, 100 µM in data set [8] amounted to 98.3%. In data set [9], the remaining at 1 h, 4 µM is 67.6%.
Take `CC1=C(c2nc(-c3ccc(C#N)cc3)cs2)C(c2ccc(C(F)(F)F)nc2)NC(=O)N1` (configuration not stated): the IC50 was greater than 100 µM in [1], 1.1 µM in data set [2], 1.2 µM with PBMC and 0.86 µM in data set [10]. Also, the IC90 was greater than 100 µM in data set [1], 7.3 µM in data set [2], 4.6 µM with PBMC and 7.7 µM in data set [10]. The Activity result in [2] was “Dose-dependent effect”. Moreover, the TI in [3] was greater than 116; in data set [6], 91; in [7], 83. Further, the CC50 at 48 h in data set [4] was greater than 100 µM. In addition, the CC50 in [5] is greater than 100 µM.
`CC1=C(c2nc(-c3ccc(C#N)cc3)cs2)C(c2ccc(Cl)nc2)NC(=O)N1` (configuration not stated): in data set [2], the Activity entry was “Dose-dependent effect”, the IC50 turned out to be 0.48 µM and the IC90 turned out to be 2.4 µM. In the data set with PBMC, inhibition was half-maximal at 0.38 µM (IC50) and the IC90 worked out at 0.94 µM. Further, in [4], the CC50 at 48 h was greater than 100 µM. The CC50 in [5] was greater than 100 µM. Further, in [6], the TI turned out to be 208. For the same molecule, in data set [7], the TI was 263. In addition, the remaining at 1 h, 100 µM in data set [8] was determined as 91.7%. The remaining at 1 h, 4 µM in data set [9] was determined as 63.4%.
For the molecule `CC1=C(c2nc(-c3ccc(C#N)cc3)cs2)C(c2cccc(O)c2)NC(=O)N1` (configuration not stated), in [2], the Activity result is “Dose-dependent effect”, the IC50 worked out at 0.44 µM and the IC90 turned out to be 2.1 µM. In the data set on PBMC, this molecule yielded an IC50 of 0.19 µM and an IC90 of 0.66 µM. In [4], the CC50 at 48 h came to 98 µM. For the same molecule, in data set [5], the CC50 is 84 µM. For the same molecule, in data set [6], the TI is given as 223. The TI in data set [7] amounted to 442. Further, the remaining at 1 h, 100 µM in [8] is 88.5%. Moreover, the remaining at 1 h, 4 µM in [9] came out at 52.4%.
With `CC1=C(c2nc(-c3ccc(C)cc3)cs2)C(c2cccc(O)c2)NC(=O)N1` (configuration not stated), in data set [2], the Activity result was “Dose-dependent effect”, the IC50 was determined as 31 µM and the IC90 came to 80 µM. Moreover, in the data set with PBMC, the IC50 is 16 µM and the IC90 stood at 48 µM. In addition, in [4], the CC50 at 48 h is 61 µM. In addition, the CC50 in data set [5] worked out at 65 µM. In [6], the TI is listed as 2. Moreover, the TI in data set [7] is 4.1.
In the case of `CC1=C(c2nc(-c3ccc4ccccc4c3)cs2)C(c2cccc(O)c2)NC(=O)N1` (configuration not stated), in data set [2], the Activity result was “Dose-dependent effect”, the IC50 was determined as 43 µM and the IC90 worked out at 84 µM. In the data set on PBMC, this molecule registered an IC50 of 13 µM and an IC90 of 29 µM. Also, in data set [4], the CC50 at 48 h was determined as 55 µM. The CC50 in data set [5] is 47 µM. Moreover, in [6], the TI is listed as 1.3. Besides, the TI in data set [7] amounted to 3.6.
Consider `COc1ncccc1C1NC(=O)NC(C)=C1c1nc(-c2ccc(C#N)cc2)cs1` (configuration not stated), for which, in data set [2], the Activity entry is “Dose-dependent effect”, the IC50 came out at 3.8 µM and the IC90 stood at 66 µM. In the data set with PBMC, it took 2.6 µM to reach half-maximal inhibition (IC50) and it took 7.3 µM to reach the 90% level (IC90). In data set [4], the CC50 at 48 h is greater than 100 µM. In addition, the CC50 in data set [5] was greater than 100 µM. The TI in data set [6] amounted to 26. For the same molecule, the TI in data set [7] amounted to 39.
Take `CC1=C(c2nc(-c3ccccc3)cs2)C(c2cccc(O)c2)NC(=O)N1` (configuration not stated): in data set [2], the Activity result was “Dose-dependent effect”, the IC50 was 79 µM and the IC90 was greater than 100 µM. In the data set with PBMC, this molecule gave an IC50 of 37 µM and an IC90 of 81 µM. Besides, the CC50 at 48 h in data set [4] is greater than 100 µM. The CC50 in data set [5] came out at 76 µM. The TI in data set [6] was 1.3. The TI in [7] was 2.
For the molecule `CC1=C(c2nc(-c3ccc(C#N)cc3)cs2)C(c2ccc(Oc3ccccc3)nc2)NC(=O)N1` (configuration not stated), in data set [2], the Activity entry was “Dose-dependent effect”, the IC50 came to 0.64 µM and the IC90 was found to be 2.8 µM. For the same molecule, in the data set with PBMC, the IC50 was determined as 1.2 µM and the IC90 was found to be 3.4 µM. For the same molecule, in data set [4], the CC50 at 48 h was greater than 100 µM. In data set [5], the CC50 was 67.5 µM. The TI in [6] was determined as 156. In addition, the TI in data set [7] stood at 56.
With `CC1=C(c2nc(-c3cccc(O)c3)cs2)C(c2cccc(O)c2)NC(=O)N1` (configuration not stated), in data set [2], the Activity result was “Dose-dependent effect”, the concentration for half-maximal inhibition (IC50) came to 68 µM and the IC90 is 98 µM. In the data set with PBMC, this molecule returned an IC50 of 40 µM and an IC90 of 85 µM. For the same molecule, in [4], the CC50 at 48 h came out at 89 µM. Also, in [5], the CC50 was 55 µM. In addition, the TI in data set [6] worked out at 1.3. Further, the TI in data set [7] was 1.4.
For the molecule `CC1=C(c2nc(-c3ccc(C#N)cc3)cs2)C(c2ccc(OCc3ccccc3)cc2)NC(=O)N1` (configuration not stated), the Activity entry in data set [2] is “Dose-dependent effect”. For the same molecule, the IC50 in data set [2] worked out at 0.13 µM; in the data set on PBMC it was 0.21 µM. In addition, the IC90 in data set [2] is 0.75 µM; in the data set with PBMC, 0.6 µM. In data set [4], the CC50 at 48 h was greater than 10 µM. The CC50 in [5] was greater than 100 µM. For the same molecule, the TI in data set [6] came out at 77; in data set [7] it was 476.
`CC1=C(c2nc(-c3ccc(C(F)(F)F)cc3)cs2)C(c2cccc(O)c2)NC(=O)N1` (configuration not stated): the Activity entry in data set [2] is “Dose-dependent effect”. The IC50 was 5.2 µM in [2] and 5.9 µM in the data set on PBMC. Besides, the IC90 in data set [2] came to 23 µM; with PBMC, 18 µM. Moreover, in data set [4], the CC50 at 48 h worked out at 40 µM. In addition, the CC50 in data set [5] is 57 µM. In addition, the TI in [6] worked out at 7.7; in [7], 9.7.
In the case of `CC1=C(c2nc(-c3cccc(C#N)c3)cs2)C(c2cccc(O)c2)NC(=O)N1C` (configuration not stated), in data set [2], the Activity result was “Dose-dependent effect”, the IC50 amounted to 55.4 µM and the IC90 turned out to be 89.2 µM. In the data set on PBMC, this molecule had an IC50 of 14.5 µM and an IC90 of 59.6 µM. The CC50 at 48 h in data set [4] was greater than 100 µM. In addition, the CC50 in [5] is 64.2 µM. Further, the TI in data set [6] turned out to be 1.8. Further, the TI in [7] was determined as 4.4.
Consider `CC1=C(c2nc(-c3cccc(C#N)c3)cs2)C(c2cccc(O)c2)NC(=O)N1` (configuration not stated), for which, in data set [2], the Activity entry was “Dose-dependent effect”, the IC50 stood at 8.7 µM and the IC90 amounted to 38.1 µM. In the data set on PBMC, half-maximal inhibition (IC50) was put at 5 µM and the IC90 amounted to 15.1 µM. The CC50 at 48 h in data set [4] turned out to be 51.8 µM. The CC50 in [5] is 74 µM. Moreover, in [6], the TI was found to be 6. For the same molecule, the TI in data set [7] is listed as 15.
